# Results published in article PMC4413184, “Seco-Taondiol, an Unusual Meroterpenoid from the Chilean Seaweed Stypopodium flabelliforme and Its Gastroprotective Effect in Mouse Model” (Marine Drugs, 2015).
# “Also recorded” adds a separate entry of the source. Marks after values point to notes of the source that are not given here.
# How the values were obtained:
# [1] = test system: HCl/EtOH-induced gastric lesions in mice; assay: HCl/EtOH-induced gastric lesions model in mice; assay type: in vivo; conditions: for gastroprotective activity (in words): HCl/EtOH-induced gastric lesions model in mice; for Lesion Index (mm) / % Lesion Reduction / inhibition of the appearance of gastric mucosal lesions: mice; for Lesion Index (mm) / % Lesion Reduction: oral, title: 30 mg/kg, method: meroditerpenoids 40 mg/kg, lansoprazole 30 mg/kg; for Lesion Index (mm): mean ± sd, n = 7; for % Lesion Reduction: versus control; for inhibition of the appearance of gastric mucosal lesions: oral administration at 40 mg/kg
# Protocol: The gastroprotective activity of the compounds 4a–5a, and 9, 11 was assessed in the HCl/EtOH-induced lesion model as described previously. Mice were randomly distributed into groups of seven animals each and fasted for 12 h with free access to water prior to the experiment. Fifty min after oral administration of the meroditerpenoids (40 mg/kg), lansoprazole (30 mg/kg) or 1% Tween 80 (10 mL/kg), all groups were orally treated with 0.2 mL of a solution containing 0.3 M HCl/60% ethanol (HCl/EtOH) for gastric lesion induction. Animals were sacrificed 1 h after the administration of HCl/EtOH, and the stomachs were excised and inflated by injection of saline (1 mL). The ulcerated stomachs were fixed in 5% formalin for 30 min and opened along the greater curvature. […] The length (mm) of each lesion was measured, and the lesion index was expressed as the sum of the length of all lesions.
# [2] = Cytotoxicity MTT assay, AGS cells; assay type: cell-based, human; conditions: human, AGS cells (human gastric epithelial cells), 48 h incubation
# Protocol: (§1) The cytotoxic assay expressed as cell viability was conducted using MTT assay method. Cells at a density of 3 × 10^4 of MRC fibroblasts or AGS cells were plated in 96-well culture dishes. Compounds were assayed at concentrations ranging from 0 up to 500 μM. Incubated at 37 °C in humidified CO2 incubator for 24 h. After incubation, various concentrations in DMSO solvent of the compounds were added. Each compound was tested in quadruplicate and repeated three times. After 48 h incubation, assay was stop by adding MTT reagent (3-(4,5dimethylthiazol-2-yl)-2,5-diphenyltetrazolium bromide) and the incubation continue for next 4 h before the addition of MTT stop solution containing sodium dodecyl sulphate (SDS), the incubation continue for next 24 h. optical density was measured using microplate reader at 550 nm. IC50 value obtained from the plotted graph between percentage live cells compared to control.
# [3] = test system: human fibroblast (MRC fibroblasts); assay: Cytotoxicity MTT assay, fibroblasts; assay type: cell-based; conditions: 48 h incubation
# Protocol: as §1
# [4] = test system: HCl/EtOH-induced gastric lesions in indomethacin-pretreated mice; assay: HCl/EtOH-induced gastric lesions in indomethacin-pretreated mice; assay type: in vivo; conditions: indomethacin 30 mg/kg s.c. 30 min before, 1a 35 mg/kg, 3a 40 mg/kg oral
# Protocol: (§2) To investigate the involvement of endogenous prostaglandins in the gastroprotective effect of 1a and 3a, indomethacin s.c. (30 mg/kg, an inhibitor of the prostaglandin synthesis was dissolved in 5% NaHCO3) was injected 30 min before administration of 1a, 3a or vehicle (IND-treated). Fifty min after oral administration of 1a (35 mg/kg), 3a (40 mg/kg) or vehicle, all groups were orally treated with 0.2 mL of a solution containing 0.3 M HCl/60% ethanol (HCl/EtOH) for gastric lesion induction. Animals were sacrificed 1 h after the administration of HCl/EtOH, and the stomachs were excised and inflated by injection of saline (1 mL). The gastric mucosal lesions were induced and the length of gastric lesions was measured as described above.
# [5] = test system: HCl/EtOH-induced gastric lesions in NEM-pretreated mice; assay: HCl/EtOH-induced gastric lesions in N-ethylmaleimide (NEM)-pretreated mice; assay type: in vivo; conditions: NEM 10 mg/kg s.c. 30 min before, 1a 35 mg/kg, 3a 40 mg/kg oral
# Protocol: as §2, with “sulfhydryl compounds (SHs)” for “endogenous prostaglandins”, “NEM” for “indomethacin”, “(10” for “(30”, “SH blocker” for “inhibitor of the prostaglandin synthesis”, “saline)” for “5% NaHCO3)”, “(NEM-treated).” for “(IND-treated).”
# [6] = test system: HCl/EtOH-induced gastric lesions in L-NAME-pretreated mice; assay: HCl/EtOH-induced gastric lesions in L-NAME-pretreated mice; assay type: in vivo; conditions: L-NAME 70 mg/kg i.p. 30 min before, 1a 35 mg/kg, 3a 40 mg/kg oral
# Protocol: as §2, with “nitric oxide (NO)” for “prostaglandins”, “L-NAME i.p. (70” for “indomethacin s.c. (30”, “NO synthase” for “the prostaglandin synthesis”, “saline)” for “5% NaHCO3)”, “(L-NAME-treated).” for “(IND-treated).”
# [7] = test system: HCl/EtOH-induced gastric lesions in RR-pretreated mice; assay: HCl/EtOH-induced gastric lesions in ruthenium red (RR)-pretreated mice; assay type: in vivo; conditions: RR 3.5 mg/kg s.c. 30 min before; 1a 35 mg/kg, 3a 40 mg/kg oral
# Protocol: as §2, with “vanilloid receptor” for “endogenous prostaglandins”, “RR” for “indomethacin”, “(3.5” for “(30”, “a vanilloid receptor antagonist” for “an inhibitor of the prostaglandin synthesis”, “saline)” for “5% NaHCO3)”, “(RR-treated).” for “(IND-treated).”
# [8] = test system: HCl/EtOH-induced gastric lesions in mice; parameters: method as in PMID 21922901; conditions: cited from earlier work
# [9] = Cytotoxicity MTT assay, fibroblasts; assay type: cell-based, human; conditions: human, MRC fibroblasts, 48 h incubation
# Protocol: as §1
# [10] = test system: human epithelial gastric cells (AGS); assay: Cytotoxicity MTT assay, AGS cells; assay type: cell-based; conditions: 48 h incubation
# Protocol: as §1
smiles,measurement,setting,value
"Cc1cc(O)cc2c1OC1(C)CCC3C(C)(CCC4C(C)(C)C(O)CCC43C)C1C2 (stereo not drawn) [Compound 3a, epitaondiol]",gastroprotective activity (in words),[1],exhibited gastroprotective activity
same,Lesion Index (mm),[1],16.7 ± 3.1 mm
same,% Lesion Reduction,[1],60 * %
same,IC50 at 48 h,[2],29 ± 3 µM
same,IC50,[3],19 ± 4 µM
same,effect of indomethacin pre-treatment on the gastroprotective effect,[4],attenuated
same,effect of indomethacin pre-treatment on the gastroprotective effect,[4]; listed as epitaondiol,reversed significantly
same,effect of NEM pre-treatment on the gastroprotective effect,[5],reduced
same,effect of NEM pre-treatment on the gastroprotective effect,[5]; listed as epitaondiol,reversed significantly
same,effect of L-NAME pre-treatment on the gastroprotective effect,[6],reduced
same,effect of L-NAME pre-treatment on the gastroprotective effect,[6]; listed as epitaondiol,reversed significantly
same,effect of ruthenium red pre-treatment on the gastroprotective effect,[7],did not reduce
same,gastroprotective activity ED50,[8],40 mg/kg
"COc1c(C)cc(OC(C)=O)cc1CC1C(C)CCC2C3(C)CCC(OC(C)=O)C(C)(C)C3=CCC12C (stereo not drawn) [Compound 7, O,C(3)-seco-9-ene-6β-taondiol diacetate]",IC50 at 48 h,[2],85 ± 5 µM
same,IC50 at 48 h,[9],102 ± 6 µM
"CC(=O)Oc1c(Cl)c(C)c2c(c1OC(C)=O)CC1(O2)C(C)CCC2C3(C)CCC(OC(C)=O)C(C)(C)C3CCC21C (stereo not drawn) [Compound 8, 4'-chlorostypotriol triacetate]",IC50 at 48 h,[2],11 ± 1 µM
same,IC50 at 48 h,[9],12 ± 1 µM
"CC(=O)Oc1cc(C)c2c(c1OC(C)=O)CC1(O2)C(C)CCC2C3(C)CCC(OC(C)=O)C(C)(C)C3CCC21C (stereo not drawn) [Compound 9, stypotriol triacetate]",gastroprotective activity (in words),[1],inactive
same,Lesion Index (mm),[1],36.4 ± 5.2 mm
same,% Lesion Reduction,[1],12%
same,IC50 at 48 h,[2],14 ± 3 µM
same,IC50 at 48 h,[9],21 ± 5 µM
"Cc1c(OCC(F)(F)F)ccnc1C[S+]([O-])c1nc2ccccc2[nH]1 (stereo not drawn) [Lansoprazole, lansoprazole, reference compound]",Lesion Index (mm),[1],14.1 ± 3.6 mm
same,% Lesion Reduction,[1],66 * %
same,IC50 at 48 h,[2],198 ± 5 µM
same,IC50 at 48 h,[9],392 ± 6 µM
"CC(=O)Oc1cc(C)c2c(c1OC(C)=O)CC1(O2)C(C)CCC2C3(C)CCC(=O)C(C)(C)C3CCC21C (stereo not drawn) [Compound 11, 14-ketostypodiol diacetate]",gastroprotective activity (in words),[1],inactive
same,Lesion Index (mm),[1],37.9 ± 7.3 mm
same,% Lesion Reduction,[1],9%
same,IC50 at 48 h,[2],65 ± 4 µM
same,IC50 at 48 h,[9],102 ± 6 µM
"Cc1cc(O)cc2c1OC1(C2)C(C)CCC2C3(C)CCC(O)C(C)(C)C3CCC21C (stereo not drawn) [Compound 4a, stypodiol]",gastroprotective activity (in words),[1],gastroprotective activity in similar way than positive control
same,gastroprotective activity (in words),[1]; listed as stypodiol,exhibited gastroprotective activity
same,inhibition of the appearance of gastric mucosal lesions,[1],69%
same,Lesion Index (mm),[1],13.0 ± 4.0 mm
same,% Lesion Reduction,[1],69 * %
same,IC50 at 48 h,[2],153 ± 9 µM
same,IC50 at 48 h,[9],215 ± 8 µM
"Cc1cc(O)cc2c1OC1(C)CCC3C(C)(CCC4C(C)(C)C(O)CCC43C)C1C2 (stereo not drawn) [Compound 5a, isoepitaondiol]",gastroprotective activity (in words),[1],gastroprotective activity in similar way than positive control
same,gastroprotective activity (in words),[1]; listed as isoepitaondiol,exhibited gastroprotective activity
same,inhibition of the appearance of gastric mucosal lesions,[1],78%
same,Lesion Index (mm),[1],9.1 ± 3.6 mm
same,% Lesion Reduction,[1],78 * %
same,IC50,[10],42 ± 2 µM
same,IC50,[3],65 ± 3 µM
"CC(C)=CCC/C(C)=C/CC/C(C)=C/CC[C@]1(C)C=Cc2cc(O)cc(C)c2O1 [Compound 1a, sargaol]",gastroprotective activity (in words),[1],exhibited gastroprotective activity
same,Lesion Index (mm),[1],20.0 ± 3.6 mm
same,% Lesion Reduction,[1],52 * %
same,IC50 at 48 h,[2],18 ± 4 µM
same,IC50 at 48 h,[9],12 ± 3 µM
same,effect of indomethacin pre-treatment on the gastroprotective effect,[4],reversed significantly
same,effect of indomethacin pre-treatment on the gastroprotective effect,[4]; listed as sargaol,attenuated
same,effect of NEM pre-treatment on the gastroprotective effect,[5],reduced; also recorded: reversed significantly
same,effect of NEM pre-treatment on the gastroprotective effect,[5]; listed as sargaol,attenuated
same,effect of L-NAME pre-treatment on the gastroprotective effect,[6],has not attenuated
same,effect of ruthenium red pre-treatment on the gastroprotective effect,[7],did not reduce
same,gastroprotective activity ED50,[8],35 mg/kg
